Data as given in US11292785B2, “Nitrogen-containing benzoheterocycle compound comprising carboxylic acid group, preparation method and use thereof” (Sichuan Kelun-Biotech Biopharmaceutical Co., Ltd., priority 2018, dated 2022).
Like-named read-outs stand apart in the source and are kept apart here.

Columns and labels:
[1] = molecular target: T1, CCR2 (Homo sapiens, UniProt P41597); assay: Inhibition test on activity of CCR2 in cells (calcium fluorescence, MCP1 stimulation); format: cell-based; details: HEK293 cells stably expressing CCR2, ligand MCP1
T1 construct: host or cells: HEK293
Text: (§1) HEK293 cells that stably express CCR2 and CCR5 receptor proteins were first labeled with calcium ion sensitive fluorescent probe and then stimulated with corresponding ligands (MCP1 and RANTES). After the stimulation, the receptors were activated to trigger the release of the calcium ions from endoplasmic reticulum to cytoplasm. And once the calcium ions were captured by the fluorescent probe, the fluorescent signal could be triggered. The inhibition of compounds on CCR2 and CCR5 can be evaluated by detecting the intensity of the fluorescent signal.
(§2) To each well of the 384-well plates, 2×10^4 HEK293 cells were added and cultured overnight. After being labelled by fluorescent probe, MCP1 and RANTES in different concentrations were added, and the fluorescent signal was read. The fluorescence signal was plotted in relation to the ligand concentration, and according to the four-parameter model, IC50 values were calculated as the ligand concentrations of the CCR2 and CCR5 for the subsequent detection of the compounds.
(§3) By referring to the above results, cells were incubated with the test compound in different concentrations (5000 nM, 1250 nM, 313 nM, 78 nM, 20 nM, 4.8828 nM, 1.2207 nM, 0.3052 nM, 0.0763 nM, and 0.0191 nM), and after MCP1 and RANTES were added thereto, the fluorescent signal was read. The inhibition activity of each concentration group was calculated, wherein the solvent group (not containing the compound) was as the negative control, and the Buffer group (not containing any ligand) was as the blank control: Relative inhibition activity percentage=1−(fluorescent signal of each concentration group-fluorescent signal of the blank group)/(fluorescent signal of the solvent group-fluorescent signal of the blank group)*100%.
(§4) The inhibition activity percentage of each concentration group was plotted in relation to the concentration of the compound, and the curve was fitted according to the four-parameter model, IC50 values were calculated: y=min+(max−min)/(1+(x/IC50)^(−Hillslope))
(§5) wherein y is the relative inhibition activity percentage; max, min are the maximum and minimum values of the fitted curve, respectively; x is the concentration of the compound, and Hillslope is the slope of the curve.

[2] = molecular target: T2, CCR5 (Homo sapiens, UniProt P51681); assay: Inhibition test on activity of CCR5 in cells (calcium fluorescence, RANTES stimulation); format: cell-based; details: HEK293 cells stably expressing CCR5, ligand RANTES
T2 construct: host or cells: HEK293
Text: as §1, §2, §3, §4, §5

[3] = molecular target: T3, CYP 1A2 (Homo sapiens, UniProt P05177); assay: CYP 1A2 inhibition test in human liver microsomes (probe phenacetin); format: in vitro ADME; details: probe substrate phenacetin, read-out: CYP 1A2 (μM), half inhibition concentration (IC50)
T3 construct: from tissue; host or cells: human liver microsomes
T3 sequence (P05177 1-516): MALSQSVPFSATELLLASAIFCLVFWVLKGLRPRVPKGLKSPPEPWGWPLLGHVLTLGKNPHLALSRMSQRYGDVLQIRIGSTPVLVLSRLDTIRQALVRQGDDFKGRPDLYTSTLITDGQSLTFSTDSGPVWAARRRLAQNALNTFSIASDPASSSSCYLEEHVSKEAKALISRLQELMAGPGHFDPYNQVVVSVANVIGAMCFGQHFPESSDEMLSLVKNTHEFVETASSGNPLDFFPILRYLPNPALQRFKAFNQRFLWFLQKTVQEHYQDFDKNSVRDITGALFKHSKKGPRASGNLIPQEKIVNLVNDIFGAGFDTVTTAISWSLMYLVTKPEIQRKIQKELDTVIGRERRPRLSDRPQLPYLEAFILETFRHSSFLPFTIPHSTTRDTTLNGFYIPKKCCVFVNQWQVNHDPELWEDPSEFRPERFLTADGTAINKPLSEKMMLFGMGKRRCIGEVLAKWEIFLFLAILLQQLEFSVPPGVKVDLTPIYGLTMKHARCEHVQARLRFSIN
Method: Probe substrate: Phenacetin, National Institute of Control of Pharmaceutical & Biological Products, 100095.
Positive control: alpha-naphthoflavane, ACras, A0331533.
(§6) A probe substrate (50 μl), PBS (49 μl) and a test compound in different concentrations (0.05 μM, 0.15 μM, 0.5 μM, 1.5 μM, 5 μM, 15 μM, 50 μM) or a positive control (1 μl) were mixed with human liver microsomes (HLM, 50 μl) to give 150 μl of a mixed liquid, which was subjected to pre-incubation (37° C.) for 5 min, then added with NADPH (50 μl) and incubated for 30 min. The reaction was quenched by adding 200 μl of glacial acetonitrile. An appropriate volume of an internal standard substance was added, and after vortex treatment and centrifugation, the supernatant was obtained.
(§7) The detection was performed by using LC-MS/MS. The mass spectrometer was API 5500, the liquid chromatograph was Waters ACQUITY UPLC I-CLASS system. The chromatographic column was Hypersil GOLD C18, 1.9 μm particle size, 50×2.1 mm; mobile phase A: water+0.1% formic acid, mobile phase B: acetonitrile; flow rate: 0.4 ml/min, column temperature: 40° C. The ion source as used was ESI source positive ion mode, and the scanning mode was Multiple Reaction Monitoring (MRM).
(§8) By using solvent group (DMSO) as negative control, the concentrations of the main metabolite converted from the probe substrate in the case of different concentrations of the test compound were measured, to determine the half inhibition concentration of the compound (IC50).

[4] = molecular target: T4, CYP 2D6 (Homo sapiens, UniProt P10635); assay: CYP 2D6 inhibition test in human liver microsomes (probe dextromethorphan); format: in vitro ADME; details: probe substrate dextromethorphan, read-out: CYP 2D6 (μM), half inhibition concentration (IC50)
T4 construct: from tissue; host or cells: human liver microsomes
Method: Probe substrate: Dextromethorpha, Beijing Jinbao, 100201.
Positive control: Quinidine, Damas-bata, P1176507.
as §6, §7, §8

[5] = molecular target: T5, CYP 3A4M (Homo sapiens, UniProt P08684); assay: CYP 3A4M inhibition test in human liver microsomes (probe midazolam); format: in vitro ADME; details: probe substrate midazolam, read-out: CYP 3A4M (μM), half inhibition concentration (IC50)
T5 construct: from tissue; host or cells: human liver microsomes
Method: Probe substrate: Midazolam, National Institute of Control of Pharmaceutical & Biological Products, 171265.
Positive control: Ketoconazole, purchased from Dingdang Chemical, DTYC 0516-17.
as §6, §7, §8

[6] = molecular target: T6, CYP 3A4T (Homo sapiens, UniProt P08684); assay: CYP 3A4T inhibition test in human liver microsomes (probe testosterone); format: in vitro ADME; details: probe substrate testosterone, read-out: CYP 3A4T (μM), half inhibition concentration (IC50)
T6 construct: from tissue; host or cells: human liver microsomes
Method: Probe substrate: Testosterone, European Pharmacopoeia (EP) Reference Standard, Sigma-Aldrich, T0100000.
Positive control: Ketoconazole, Dingdang Chemical, DTYC 0516-17.
as §6, §7, §8

[7] = molecular target: T7, hERG potassium ion channels (Homo sapiens, UniProt Q12809); assay: hERG inhibition test, manual patch clamp, HEK293 cells over-expressing hERG; format: cell-based; details: tested at 1 μM and 10 μM
T7 construct: expressed in transfected cells; host or cells: HEK293
Method: Different concentrations (1 μM and 10 μM) of the test compound and 30 μM positive control Quinidine were formulated. HEK293 cells over-expressing hERG potassium ion channels were cultured in 5% CO2 incubator at 37° C. When the density of the cells reaches 80% of the Petri dish, the cells was washed with phosphate buffer solution (PBS), followed by digestion with Trypsin/EDTA for 2-3 minutes. The digestion was terminated by adding cell culture medium, then the solution was transferred and centrifuged to remove the supernatant, and added with cell culture medium (DMEM, 15% fetal bovine serum and 1% 100×Penicillin-Streptomycin). After uniformly mixing, the cells were dripped onto a circular slide and cultured in a Petri dish to obtain the test cells.
Channel current was recorded by applying electrophysiological manual patch clamp in a whole-cell recording mode: extracellular fluid was perfused until the current was stable, after the peak value of the tail current (control current value) was recorded, the extracellular fluid containing different concentrations of the test compound was perfused, continuously recording was conducted until the inhibition effect of the medicine on the hERG current reach stable, and the peak value of the tail current (current value after drug administration) was recorded.

[8] = Rat pharmacokinetic (PK) studies, plasma and liver; format: in vivo; details: male SD rats, p.o. 5 mg/kg; for Kp: male, SD, liver relative to plasma, 5 mg/kg; for Kp / AUC(0-t) / Cmax / bioavailability / half-life: rat, po
Method: The test compound was administered intragastrically (p.o.) to male SD rats at a dose of 5 mg/kg. The solvent system was 0.5% MC during the p.o. administration. After p.o. administration, blood was collected for PK studies at 5 min, 15 min, 30 min, 1 h, 2 h, 4 h, 6 h, 8 h, and 24 h. After p.o. administration, liver tissues were collected at 15 min, 1 h, 4 h, 8 h and 24 h, and the liver tissue sample, after being subjected to protein precipitation treatment, was analyzed by a LC-MS/MS. The mass spectrometer was API 5500, and the liquid chromatograph was Waters ACQUITY I CLASS system: chromatographic column: Agela ASB C18 column (2.1 mm×50 mm, 1.9 μm); mobile phase A: water+0.1% formic acid, mobile phase B: acetonitrile; flow rate: 0.4 mL/min, column temperature: 40° C. The ion source as used was ESI source positive ion mode, and the scanning mode was Multiple Reaction Monitoring (MRM).

T7 sequence (Q12809 whole entry): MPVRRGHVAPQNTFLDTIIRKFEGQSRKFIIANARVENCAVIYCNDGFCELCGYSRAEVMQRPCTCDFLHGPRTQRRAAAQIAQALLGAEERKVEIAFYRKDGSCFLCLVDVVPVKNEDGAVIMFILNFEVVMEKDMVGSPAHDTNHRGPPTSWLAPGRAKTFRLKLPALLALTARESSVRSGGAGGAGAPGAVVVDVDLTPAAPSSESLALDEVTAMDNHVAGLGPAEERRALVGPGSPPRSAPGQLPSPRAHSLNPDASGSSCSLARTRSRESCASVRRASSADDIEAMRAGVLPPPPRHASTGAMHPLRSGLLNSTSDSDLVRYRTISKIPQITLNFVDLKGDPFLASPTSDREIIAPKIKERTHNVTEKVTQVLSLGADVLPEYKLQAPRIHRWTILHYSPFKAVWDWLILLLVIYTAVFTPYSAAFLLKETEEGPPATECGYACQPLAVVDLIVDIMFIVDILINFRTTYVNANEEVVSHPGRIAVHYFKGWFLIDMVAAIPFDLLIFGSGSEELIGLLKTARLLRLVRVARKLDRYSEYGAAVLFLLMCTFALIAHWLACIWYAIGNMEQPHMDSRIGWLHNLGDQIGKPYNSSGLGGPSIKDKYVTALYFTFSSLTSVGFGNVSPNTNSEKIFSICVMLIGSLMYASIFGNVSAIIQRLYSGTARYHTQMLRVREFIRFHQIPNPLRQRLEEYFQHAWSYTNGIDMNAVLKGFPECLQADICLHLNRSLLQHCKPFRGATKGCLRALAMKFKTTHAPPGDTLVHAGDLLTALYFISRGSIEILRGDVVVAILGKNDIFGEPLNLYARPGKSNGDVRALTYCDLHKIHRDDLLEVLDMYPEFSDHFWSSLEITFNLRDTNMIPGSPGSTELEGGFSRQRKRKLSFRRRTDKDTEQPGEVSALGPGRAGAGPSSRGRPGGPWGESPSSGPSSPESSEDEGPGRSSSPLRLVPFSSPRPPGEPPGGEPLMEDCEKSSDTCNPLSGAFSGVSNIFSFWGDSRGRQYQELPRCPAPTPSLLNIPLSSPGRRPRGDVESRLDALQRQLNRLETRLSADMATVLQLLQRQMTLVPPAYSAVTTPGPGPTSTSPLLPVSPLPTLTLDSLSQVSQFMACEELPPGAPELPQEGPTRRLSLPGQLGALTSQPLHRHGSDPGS
T1 sequence (P41597 whole entry): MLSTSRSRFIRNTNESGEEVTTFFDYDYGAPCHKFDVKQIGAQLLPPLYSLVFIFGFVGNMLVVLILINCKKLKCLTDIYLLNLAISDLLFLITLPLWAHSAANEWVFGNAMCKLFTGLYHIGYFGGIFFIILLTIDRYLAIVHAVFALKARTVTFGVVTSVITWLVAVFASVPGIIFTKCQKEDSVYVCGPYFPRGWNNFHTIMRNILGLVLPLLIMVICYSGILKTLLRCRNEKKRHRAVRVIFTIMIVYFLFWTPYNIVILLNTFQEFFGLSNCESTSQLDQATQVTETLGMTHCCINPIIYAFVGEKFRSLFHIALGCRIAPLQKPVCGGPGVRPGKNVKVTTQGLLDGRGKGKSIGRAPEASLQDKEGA
T2 sequence (P51681 whole entry): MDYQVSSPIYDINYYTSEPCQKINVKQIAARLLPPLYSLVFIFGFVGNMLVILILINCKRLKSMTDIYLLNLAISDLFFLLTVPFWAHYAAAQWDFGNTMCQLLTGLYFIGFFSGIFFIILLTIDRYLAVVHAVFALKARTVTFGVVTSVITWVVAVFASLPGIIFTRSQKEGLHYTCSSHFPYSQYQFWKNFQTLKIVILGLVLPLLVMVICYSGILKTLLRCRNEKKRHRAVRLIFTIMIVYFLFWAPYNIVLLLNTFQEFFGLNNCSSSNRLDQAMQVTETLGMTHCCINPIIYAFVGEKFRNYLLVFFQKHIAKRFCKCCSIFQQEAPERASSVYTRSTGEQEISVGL
T5 sequence (P08684 whole entry): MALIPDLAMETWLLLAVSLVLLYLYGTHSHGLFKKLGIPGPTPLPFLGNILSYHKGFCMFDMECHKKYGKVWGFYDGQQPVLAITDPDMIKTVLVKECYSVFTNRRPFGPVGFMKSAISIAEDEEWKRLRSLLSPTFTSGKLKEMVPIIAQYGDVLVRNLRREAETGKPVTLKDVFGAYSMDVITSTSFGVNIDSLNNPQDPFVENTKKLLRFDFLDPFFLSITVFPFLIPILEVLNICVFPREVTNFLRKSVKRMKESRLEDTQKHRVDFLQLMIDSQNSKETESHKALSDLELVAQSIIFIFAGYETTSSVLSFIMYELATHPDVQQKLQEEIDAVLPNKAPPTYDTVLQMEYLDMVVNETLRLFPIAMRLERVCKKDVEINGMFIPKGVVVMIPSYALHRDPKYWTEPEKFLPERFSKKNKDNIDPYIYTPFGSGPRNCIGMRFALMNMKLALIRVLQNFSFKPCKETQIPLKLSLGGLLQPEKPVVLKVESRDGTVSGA
T6 sequence (P08684 whole entry): as above
T4 sequence (P10635 whole entry): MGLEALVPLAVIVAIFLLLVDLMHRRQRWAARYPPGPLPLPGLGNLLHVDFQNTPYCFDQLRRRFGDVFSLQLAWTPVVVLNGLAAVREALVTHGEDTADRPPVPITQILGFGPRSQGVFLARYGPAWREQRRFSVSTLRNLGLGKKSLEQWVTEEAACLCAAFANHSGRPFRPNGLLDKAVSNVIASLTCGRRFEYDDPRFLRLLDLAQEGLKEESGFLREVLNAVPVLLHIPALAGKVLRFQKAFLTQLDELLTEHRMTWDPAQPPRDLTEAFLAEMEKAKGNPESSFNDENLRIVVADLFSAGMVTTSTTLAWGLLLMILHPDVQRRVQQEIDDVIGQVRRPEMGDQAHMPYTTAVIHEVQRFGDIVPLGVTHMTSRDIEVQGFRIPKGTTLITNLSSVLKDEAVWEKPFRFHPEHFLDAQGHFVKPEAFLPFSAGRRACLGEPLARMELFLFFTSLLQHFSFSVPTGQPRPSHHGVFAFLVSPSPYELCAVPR

IC50 [5] [µM]	IC50 [6] [µM]	AUClast ([8]; liver) [ng·h/g]	Kp ([8]; AUClast liver vs plasma, read-out: exposure in the liver relative to that in the plasma)	Kp ([8]; Cmax liver vs plasma, read-out: drug concentration in the liver relative to that in the plasma)	AUC(0-t) ([8]; blood plasma) [ng·h/mL]	Cmax ([8]; blood plasma) [ng/mL]	bioavailability ([8]; blood plasma) [%]	half-life ([8]; blood plasma) [h]	Cmax ([8]; liver) [ng/g]	half-life ([8]; liver) [h]	SMILES	IC50 [1] [nM]	IC50 [2] [nM]	IC50 [3] [µM]	IC50 [4] [µM]	IC50 [7] [µM]
3.43	12.7	6033 ± 2193			6330 ± 3440	746 ± 428	10.8 ± 3.5	4.33 ± 0.87	688 ± 229	3.93 ± 1.88	CCCCOCCOc1ccc(-c2ccc3c(c2)/C=C(/C(=O)Nc2ccc([S@@+]([O-])Cc4cncn4CCC)cc2)CCCN3CC(C)C)cc1 [Cenicriviroc, reference compound]					
15.3	48.3										CCCCOCCOc1ccc(-c2ccc3c(c2)/C=C(/C(=O)Nc2ccc([S@+]([O-])Cc4c(C)ncn4CCC)cc2)CCCN3CC(C)(C)C(=O)O)cc1 [Compound 4]	6.12	2.82	> 10	> 10	> 10

Continued, compound first:

SMILES	IC50 [5] [µM]	IC50 [6] [µM]	AUClast ([8]; liver) [ng·h/g]	Kp ([8]; AUClast liver vs plasma, read-out: exposure in the liver relative to that in the plasma)	Kp ([8]; Cmax liver vs plasma, read-out: drug concentration in the liver relative to that in the plasma)	AUC(0-t) ([8]; blood plasma) [ng·h/mL]	Cmax ([8]; blood plasma) [ng/mL]	bioavailability ([8]; blood plasma) [%]	half-life ([8]; blood plasma) [h]	Cmax ([8]; liver) [ng/g]	half-life ([8]; liver) [h]	IC50 [1] [nM]	IC50 [2] [nM]	IC50 [3] [µM]	IC50 [4] [µM]	IC50 [7] [µM]
CCCCOCCOc1ccc(-c2ccc3c(c2)/C=C(/C(=O)Nc2ccc([S+]([O-])Cc4c(C)ncn4CCC)cc2)CCCN3CC(C)(C)C(=O)O)cc1 (stereo not shown) [Compound 2, (E)-3-(8-(4-(2-butoxyethoxy)phenyl)-5-((4-(((4-methyl-1-propyl-1H-imidazol-5-yl)methyl)sulfinyl)phenyl)carbamoyl)-3,4-dihydrobenzo[b]azacyclooctatetraen-1(2H)-yl)-2,2-dimethylpropanoic acid]	27.8	62.2										6.38	3.18	> 10	> 10	> 10
CCCCOCCOc1ccc(-c2ccc3c(c2)/C=C(/C(=O)Nc2ccc([S@@+]([O-])Cc4c(C)ncn4CCC)cc2)CCCN3CC(C)(C)C(=O)O)cc1 [Compound 3]	13.3	32.3	386938 ± 30242	~2340	~530	165 ± 36	49.7 ± 10.6	20.9 ± 4.5	1.93 ± 0.37	26600 ± 200	7.2 ± 0.5	0.81	1.48	> 10	> 10	> 10
CCCCOCCOc1ccc(-c2ccc3c(c2)/C=C(/C(=O)Nc2ccc([S@@+]([O-])Cc4cncn4CCC)cc2)CCCN3CC(C)(C)C(=O)O)cc1 [Compound 1, (S,E)-3-(8-(4-(2-butoxyethoxy)phenyl)-5-((4-(((1-propyl-1H-imidazol-5-yl)methyl)sulfinyl)phenyl)carbamoyl)-3,4-dihydrobenzo[b]azacyclooctatetraen-1(2H)-yl)-2,2-dimethylpropanoic acid]												0.74	0.33	> 10	> 10	
